Reference: patent publication US20090047243A1, “COMBINATIONS FOR THE TREATMENT OF B-CELL PROLIFERATIVE DISORDERS” (priority 2007, published 2009)

What was measured:
[1] = test system: RPMI-8226, H929, MM.1S and MM.1R MM cell lines; assay: Anti-proliferation assay, statements across MM cell lines; type: cell-based, human; conditions: RPMI-8226, H929, MM.1S and MM.1R MM cell lines
Protocol: The MM.1S, MM.1R, H929, MOLP-8, EJM, INA-6, ANBL6, KSM-12-PE, OPM2, and RPMI-8226 multiple myeloma cell lines, as well as the Burkitt's lymphoma cell line GA-10 and the non-Hodgkin's lymphoma cell lines Farage, SU-DHL6, and Karpas 422 were cultured at 37° C. and 5% CO2 in RPMI-1640 media supplemented with 10% FBS. ANBL6 and INA-6 culture media was also supplemented with 10 ng/ml IL-6. The OCI-ly10 cell line was cultured using RPMI-1640 media supplemented with 20% human serum. MM.1S, MM.1R, OCI-ly10, Karpas 422, and SU-DHL6 cells were provided by the Dana Farber Cancer Institute. H929, RPMI-8226, GA-10, and Farage cells were from ATCC (Cat #'s CCL-155, CRL-9068, CRL-2392 and CRL-2630 respectively). MOLP-8, EJM, KSM-12-PE, and OPM2 were from DSMZ. The ANBL6 and INA-6 cell lines were provided by the M. D. Anderson Cancer Research Center.
Compounds were prepared in DMSO at 1000× the highest desired concentration. Master plates were generated consisting of serially diluted compounds in 2- or 3-fold dilutions in 384-well format. For single agent dose response curves, the master plates consisted of 9 individual compounds at 12 concentrations in 2- or 3-fold dilutions. For combination matrices, master plates consisted of individual compounds at 6 or 9 concentrations at 2- or 3-fold dilutions.
Cells were added to 384-well plates 24 hours prior to compound addition such that each well contained 2000 cells in 35 μL of media. Master plates were diluted 100× (1 μL into 100 μL) into 384-well dilution plates containing only cell culture media. 4.5 μL from each dilution plate was added to each assay plate for a final dilution of 1000×. To obtain combination data, two master plates were diluted into the assay plates. Following compound addition, assay plates were kept at 37° C. and 5% CO2 for 72 hours. Thirty microliters of ATPLite (Perkin Elmer) at room temperature was then added to each well. Final amount of ATP was quantified within 30 minutes using ATPLite luminescent read-out on an Envision 2103 Multilabel Reader (Perkin Elmer). Measurements were taken at the top of the well using a luminescence aperture and a read time of 0.1 seconds per well.
The Loewe additivity model was used to quantify combination effects. Combinations were ranked initially by Additivity Excess Volume, which is defined as ADD Volume=ΣCX, CY (Idata−ILoewe). where ILoewe(CX, CY) is the inhibition that satisfies (CX/ECX)+(CY/ECY)=1, and ECX,Y are the effective concentrations at ILoewe for the single agent curves. A “Synergy Score” was also used, where the Synergy Score S=log fX log fY ΣIdata(Idata−ILoewe), summed over all non-single-agent concentration pairs, and where log fX,Y is the natural logarithm of the dilution factors used for each single agent. This effectively calculates a volume between the measured and Loewe additive response surfaces, weighted towards high inhibition and corrected for varying dilution factors. An uncertainty σS was calculated for each synergy score, based on the measured errors for the Idata values and standard error propagation.

[2] = test system: H929 multiple myeloma cell line; assay: Anti-proliferation assay (ATPLite, 72 h); type: cell-based, human; set-up: key: S = lnfX·lnfY·ΣIdata(Idata−ILoewe), volume over Loewe additivity
Method in brief: (§1)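 Cell viability was read by ATPLite luminescence after compound exposure. ANBL6 medium carried 10 ng/ml IL-6. Compounds were serially diluted 2- or 3-fold over 12 concentrations for single-agent curves, and percent inhibition was calculated relative to the mean of untreated wells.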

[3] = test system: RPMI-8226 multiple myeloma cell line; assay: Anti-proliferation assay (ATPLite, 72 h); type: cell-based, human; set-up: key: S = lnfX·lnfY·ΣIdata(Idata−ILoewe), volume over Loewe additivity
Method in brief: as §1

[4] = test system: human multiple myeloma cells (MM.1S); assay: Anti-proliferation assay (ATPLite, 72 h); type: cell-based; set-up: key to synergy score / synergy (score), PDEi × HE-NECA: S = lnfX·lnfY·ΣIdata(Idata−ILoewe), volume over Loewe additivity
Method in brief: as §1

[5] = test system: human multiple myeloma cells (MM.1R); assay: Anti-proliferation assay (ATPLite, 72 h); type: cell-based; set-up: key: S = lnfX·lnfY·ΣIdata(Idata−ILoewe), volume over Loewe additivity
Method in brief: as §1

ANBL6 MM cell line = assay: Anti-proliferation assay (ATPLite, 72 h); type: cell-based, human; conditions: CGS-21680 × PDE inhibitor
Protocol: (§2) ANBL6 and INA-6 culture media was also supplemented with 10 ng/ml IL-6. […] MM.1S, MM.1R, OCI-ly10, Karpas 422, and SU-DHL6 cells were provided by the Dana Farber Cancer Institute. H929, RPMI-8226, GA-10, and Farage cells were from ATCC (Cat #'s CCL-155, CRL-9068, CRL-2392 and CRL-2630 respectively). MOLP-8, EJM, KSM-12-PE, and OPM2 were from DSMZ. The ANBL6 and INA-6 cell lines were provided by the M. D. Anderson Cancer Research Center. Compounds were prepared in DMSO at 1000× the highest desired concentration. Master plates were generated consisting of serially diluted compounds in 2- or 3-fold dilutions in 384-well format. For single agent dose response curves, the master plates consisted of 9 individual compounds at 12 concentrations in 2- or 3-fold dilutions. For combination matrices, master plates consisted of individual compounds at 6 or 9 concentrations at 2- or 3-fold dilutions. […] To obtain combination data, two master plates were diluted into the assay plates. […] Thirty microliters of ATPLite (Perkin Elmer) at room temperature was then added to each well. […] Measurements were taken at the top of the well using a luminescence aperture and a read time of 0.1 seconds per well. The percent inhibition (% I) for each well was calculated using the following formula: % I=[(avg. untreated wells-treated well)/(avg. untreated wells)]×100. […] Negative inhibition values result from local variations in treated wells as compared to untreated wells. […] The uncertainty of each fitted parameter was estimated from the range over which the change in reduced chi-squared was less than one, or less than minimum reduced chi-squared if that minimum exceeded one, to allow for underestimated σI errors. Single agent curve data were used to define a dilution series for each compound to be used for combination screening in a 6×6 matrix format. […] The Loewe additivity model was used to quantify combination effects. […] A “Synergy Score” was also used, where the Synergy Score S=log fX log fY ΣIdata(Idata-ILoewe), summed over all non-single-agent concentration pairs, and where log fX,Y is the natural logarithm of the dilution factors used for each single agent. This effectively calculates a volume between the measured and Loewe additive response surfaces, weighted towards high inhibition and corrected for varying dilution factors. An uncertainty σS was calculated for each synergy score, based on the measured errors for the Idata values and standard error propagation.

EJM MM cell line = assay: Anti-proliferation assay (ATPLite, 72 h); type: cell-based, human; conditions: CGS-21680 × PDE inhibitor
Protocol: as §2

INA-6 MM cell line = assay: Anti-proliferation assay (ATPLite, 72 h); type: cell-based, human; conditions: CGS-21680 × PDE inhibitor
Protocol: as §2

KSM-12-PE MM cell line = assay: Anti-proliferation assay (ATPLite, 72 h); type: cell-based, human; conditions: CGS-21680 × PDE inhibitor
Protocol: as §2

MOLP-8 MM cell line = assay: Anti-proliferation assay (ATPLite, 72 h); type: cell-based, human; conditions: CGS-21680 × PDE inhibitor
Protocol: as §2

OPM2 MM cell line = assay: Anti-proliferation assay (ATPLite, 72 h); type: cell-based, human; conditions: CGS-21680 × PDE inhibitor
Protocol: as §2

patient CLL cells = assay: Apoptosis assay (Hoechst 33342, flow cytometry, 48 h); type: cell-based, human; set-up: unit not given here; conditions: CGS-21680 0 μM
Source text: Blood samples were obtained in heparinized tubes with IRB-approved consent from flow cytometry-confirmed B-CLL patients that were either untreated or for whom at least 1 month had elapsed since chemotherapy. Patients with active infections or other serious medical conditions were not included in this study. Patients with white blood cell counts of less than 15,000/μl by automated analysis were excluded from this study. Whole blood was layered on Ficoll-Hystopaque (Sigma), and peripheral blood mononuclear cells (PBMC) isolated after centrification. […] One million cells were stained with anti-CD5-PE and anti-CD19-PE-Cy5 (Becton Dickenson, Franklin Lakes N.J.). The percentage of B-CLL cells was defined as the percentage of cells doubly expressing CD5 and CDl9, as determined by flow cytometry. […] Compound master plates were diluted 1:50 into complete media to create working compound dilutions. Compound crosses were then created by diluting two working dilution plates 1:10 into each plate of cells. […] Hoechst 33342 (Molecular Probes, Eugene Oreg.) at a final concentration of 0.25 μg/1 mL was added to each well, and the cells incubated at 37° C. for an additional ten minutes before being placed on ice until analysis. Plates were then analyzed on a LSR-II flow cytometer (Becton Dickenson, Franklin Lakes, N.J.) equipped with the High Throughput Sampling (HTS) option in high throughput mode. […] The apoptotic fraction was calculated using FlowJo software (Tree Star Inc., Ashland, Oreg.) after excluding debris by a FSC/SSC gate and subsequently gating for cells that accumulate the Hoechst dye.

[6] = test system: phosphodiesterase (PDE) types; conditions: PDE type(s) in brackets after the name; cited from earlier work

In the case of `CNC(=O)[C@H]1O[C@@H](n2cnc3c(NCc4cccc(I)c4)ncnc32)[C@H](O)[C@@H]1O` [IB-MECA, N^6-(3-iodobenzyl)-5′-N-methylcarboxamidoadenosine], the “activity and synergy of adenosine receptor agonists” value (“activity and synergy” for short) [1] is reported as “active and synergistic”.

With `CNC(=O)[C@H]1O[C@@H](n2cnc3c(NCc4cccc(I)c4)nc(Cl)nc32)[C@H](O)[C@@H]1O` [chloro-IB-MECA, 2-chloro-N^6-(3-iodobenzyl)-5′-N-methylcarboxamidoadenosine] the “activity and synergy” value [1] was “active and synergistic”.

With `OC[C@H]1O[C@H](n2cnc3c(NC4CC5CCC4C5)ncnc32)[C@H](O)[C@@H]1O` (stereo partly drawn) [(S)-ENBA, S-N^6-(2-endo-norbornyl)adenosine] the “activity and synergy” value [1] was “active and synergistic”.

`O=C(Nc1c(Cl)cncc1Cl)c1ccc(OC(F)F)c(OCC2CC2)c1` [Roflumilast, 3-(cyclopropylmethoxy)-N-(3,5-dichloro-4-pyridinyl)-4-(difluoromethoxy)-benzamide] showed a synergy score ([2]; PDE inhibitor crossed with (S) ENBA, H929) of 1.77, a synergy score ([2]; PDE inhibitor crossed with Chloro-IB-MECA, H929) of 1.16 and a synergy score ([2]; PDE inhibitor crossed with HE-NECA, H929) of 0.98. For the same molecule, the synergy score ([2]; in combination with adenosine receptor agonist CGS-21680, H929) was 3.71, the synergy score ([2]; in combination with adenosine receptor agonist HE-NECA, H929) was 0.98 and the synergy score ([2]; in combination with adenosine receptor agonist regadenoson, H929) was 2.7. The synergy score ([3]; in combination with adenosine receptor agonist CGS-21680, RPMI 8226) was 0.69, the synergy score ([3]; in combination with adenosine receptor agonist HE-NECA, RPMI-8226) was 0.466 and the synergy score ([3]; in combination with adenosine receptor agonist regadenoson, RPMI 8226) was 1.12. It also gave an inhibition at 0.0631 µM ([4]; Homo sapiens, MM1.S, Roflumilast 0.0631 μM, Cl-IB-MECA conc. (μM), read-out: Percent inhibition of ATP in MM.1S cells) of -7.1%, an inhibition at 0.126 µM ([4]; Homo sapiens, MM1.S, Roflumilast 0.126 μM, Cl-IB-MECA conc. (μM), read-out: Percent inhibition of ATP in MM.1S cells) of 1.5% and an inhibition at 0.252 µM ([4]; Homo sapiens, MM1.S, Roflumilast 0.252 μM, Cl-IB-MECA conc. (μM), read-out: Percent inhibition of ATP in MM.1S cells) of -3.5%. The inhibition at 0.505 µM ([4]; Homo sapiens, MM1.S, Roflumilast 0.505 μM, Cl-IB-MECA conc. (μM), read-out: Percent inhibition of ATP in MM.1S cells) was 11%, the inhibition at 1.01 µM ([4]; Homo sapiens, MM1.S, Roflumilast 1.01 μM, Cl-IB-MECA conc. (μM), read-out: Percent inhibition of ATP in MM.1S cells) was 7.5% and the synergy score ([4]; PDE inhibitor crossed with (S) ENBA, MM.1S) was 2.19. The synergy score ([4]; PDE inhibitor crossed with Chloro-IB-MECA, MM.1S) was 2.12, the synergy score ([4]; PDE inhibitor crossed with HE-NECA, MM.1S) was 2 and the synergy score ([4]; in combination with adenosine receptor agonist CGS-21680, MM.1S) was 3.82. It also gave a synergy score ([4]; in combination with adenosine receptor agonist HE-NECA, MM.1S) of 2, a synergy score ([4]; in combination with adenosine receptor agonist regadenoson, MM.1S) of 3.56 and a synergy score ([5]; in combination with adenosine receptor agonist CGS-21680, MM.1R) of 3.61. The synergy score ([5]; in combination with adenosine receptor agonist regadenoson, MM.1R) was 5.83, the synergy score (ANBL6 MM cell line) was 3.73 and the synergy score (EJM MM cell line) was 1.06. It also gave a synergy score (INA-6 MM cell line) of 2.62, a synergy score (KSM-12-PE MM cell line) of 0.27 and a synergy score (MOLP-8 MM cell line) of 3.44. For the same molecule, the synergy score (OPM2 MM cell line) was 0.29, the Induction of apoptosis (patient CLL cells; Roflumilast 0.03 μM) was 17 and the Induction of apoptosis (patient CLL cells; Roflumilast 0.09 μM) was 26. The Induction of apoptosis (patient CLL cells; Roflumilast 0.27 μM) was 32 and the “PDE inhibitors (specificity)” value [6] was “Roflumilast (4)”.

With `OC[C@H]1O[C@@H](n2cnc3c(NC4CCCC4)nc(Cl)nc32)[C@H](O)[C@@H]1O` [2-chloro-N-6-cyclopentyladenosine, 2-chloro-N^6-cyclopentyladenosine] the “activity and synergy” value [1] was “active and synergistic”.
